Publication PMC6264296, “1,3-Substituted Imidazolidine-2,4,5-triones: Synthesis and Inhibition of Cholinergic Enzymes” (Molecules, 2011)
Like-named read-outs stand apart in the source and are kept apart here.

How the values were obtained:
[1] = molecular target: T1, butyrylcholinesterase from equine serum (Equus caballus, UniProt P81908); assay: biochemical
T1 construct: butyrylcholinesterase isolated from equine serum; purchased Sigma; host or cells: equine serum
Method: (§1) The ability of all tested compounds to inhibit acetylcholinesterase from electric eel (Electrophorus electricus L.) and butyrylcholinesterase from equine serum (both purchased from Sigma) was tested. […] The IC50 values were determined by the spectrophotometric Ellman’s method.
(§2) The Ellman’s method is a simple, rapid and direct method to determine the SH and –S–S– group content in proteins. This method is widely used for measuring of cholinesterase activity and effectivity of cholinesterase inhibitors. Cholinesterase activity is measured indirectly by quantifying the concentration of 5-thio-2-nitrobenzoic acid (TNB) ion formed in the reaction between the thiol reagent 5,5′-dithiobis-2-nitrobenzoic acid (DTNB) and thiocholine, a product of substrate (i.e., acetylthiocholine, ATCh) hydrolysis by the cholinesterase. All tested compounds were dissolved in dioxane (concentration 0.01 M) and then diluted in demineralized water (concentration 0.001 M and 0.0001 M). The procedure of determination of IC50 is in detail described in [49]. For determination of IC50 values the inhibition was determined at 12 different compound concentrations with three replicates.

[2] = molecular target: T2, acetylcholinesterase from electric eel (Electrophorus electricus, UniProt O42275); assay: biochemical
T2 construct: purchased Sigma
Method: as §1, §2

[3] = Partition coefficient log Kow (n-octanol/water), shake-flask method; type: physicochemical; details: mean ± SD (n = 3 experiments)
Method: Before the partition coefficient is determined, the two solvents are mutually saturated at the temperature of the experiment. To do this, it is practical to shake two large stock bottles, one containing n-octanol and a sufficient quantity of water, and the other containing water and a sufficient quantity of n-octanol, for 24 hours on a mechanical shaker and then to let them stand long enough to allow the phases to separate.
The procedure of determination was the following: n-Octanol (2 mL) was placed in a test tube. Then an octanol solution of the chosen inhibitor (15 μL, 0.01 M) was added. Mixture was intensively shaken for 15 min. This mixture (1 mL) was placed into the cell, and its absorbance at the absorption maximum wavelength was measured. The reference solution was n-octanol. The value of absorbance corresponding to 100% of the chosen inhibitor in n-octanol was obtained. An n-octanol solution of the chosen inhibitor (0.01 M, 15 μL) was added into the mixture of n-octanol and water (1:1, total volume 4 mL). The mixture was intensively shaken for 15 min and then centrifuged (3,000 rpm, 10 min). One mL of the n-octanol layer was put into the cell, and its absorbance at the wavelength of absorption maximum was measured. The comparative solution was n-octanol again. The percentage content of chosen inhibitor in the octanol layer (%) was obtained. The n-octanol/water partition coefficient is defined as Pow = c1/c2, where c1 and c2 are molar concentrations of tested compounds in n-octanol and water. For each compound, at least three determinations were performed.

[4] = equine serum BChE, Ellman's method, mean ± SD (n = 3 experiments), read-out: BChE IC50
[5] = electric eel AChE, Ellman's method, mean ± SD (n = 3 experiments), read-out: AChE IC50

T1 sequence (P81908 whole entry): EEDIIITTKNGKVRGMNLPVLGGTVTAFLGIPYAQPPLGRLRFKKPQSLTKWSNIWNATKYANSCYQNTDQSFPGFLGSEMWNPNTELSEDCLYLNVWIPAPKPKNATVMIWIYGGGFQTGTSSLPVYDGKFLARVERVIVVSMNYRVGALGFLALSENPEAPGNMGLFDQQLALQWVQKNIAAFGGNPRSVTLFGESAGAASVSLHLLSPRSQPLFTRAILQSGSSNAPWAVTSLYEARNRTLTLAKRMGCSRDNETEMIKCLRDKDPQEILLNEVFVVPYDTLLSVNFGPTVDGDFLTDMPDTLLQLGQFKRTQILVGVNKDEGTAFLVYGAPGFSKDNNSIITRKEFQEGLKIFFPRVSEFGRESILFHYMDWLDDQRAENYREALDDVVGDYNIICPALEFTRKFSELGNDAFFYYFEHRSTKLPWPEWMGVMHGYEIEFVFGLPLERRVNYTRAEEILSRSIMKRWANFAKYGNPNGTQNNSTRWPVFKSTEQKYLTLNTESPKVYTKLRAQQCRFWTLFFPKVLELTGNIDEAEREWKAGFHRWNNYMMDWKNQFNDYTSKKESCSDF
T2 sequence (O42275 24-633): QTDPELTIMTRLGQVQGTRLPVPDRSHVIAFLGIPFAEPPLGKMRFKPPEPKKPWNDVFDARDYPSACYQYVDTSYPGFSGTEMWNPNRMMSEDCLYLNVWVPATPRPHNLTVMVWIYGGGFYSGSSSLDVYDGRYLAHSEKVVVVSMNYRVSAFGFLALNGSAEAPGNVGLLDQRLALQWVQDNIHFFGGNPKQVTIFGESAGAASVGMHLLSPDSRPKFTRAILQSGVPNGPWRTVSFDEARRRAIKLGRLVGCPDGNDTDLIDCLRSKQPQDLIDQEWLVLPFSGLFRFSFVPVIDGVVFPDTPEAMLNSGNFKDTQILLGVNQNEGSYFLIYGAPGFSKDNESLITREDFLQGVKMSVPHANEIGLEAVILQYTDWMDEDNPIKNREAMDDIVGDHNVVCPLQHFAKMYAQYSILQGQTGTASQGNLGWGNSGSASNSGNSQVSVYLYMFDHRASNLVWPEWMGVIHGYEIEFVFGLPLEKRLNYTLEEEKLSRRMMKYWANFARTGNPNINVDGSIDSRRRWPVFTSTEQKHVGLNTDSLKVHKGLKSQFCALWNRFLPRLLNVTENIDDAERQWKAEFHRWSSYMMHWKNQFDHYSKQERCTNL

C[C@H](c1nc2ccc(F)cc2s1)N1C(=O)C(=O)N(c2ccccc2)C1=O [Compound 3a, 1-[(1R)-1-(6-Fluoro-1,3-benzothiazol-2-yl)ethyl]-3-phenylimidazolidine-2,4,5-trione]
IC50 [1, 4]: 14.5 ± 0.21 µM
IC50 [2, 5]: 21.4 ± 0.19 µM

C[C@H](c1nc2ccc(F)cc2s1)N1C(=O)C(=O)N(c2cccc(C(F)(F)F)c2)C1=O [Compound 3b, 1-(3-Trifluoromethylphenyl)-3-[(1R)-1-(6-fluoro-1,3-benzothiazol-2-yl)ethyl]imidazolidine-2,4,5-trione]
log Kow [3]: 1.12 ± 0.15
IC50 [1, 4]: 17.4 ± 0.37 µM
IC50 [2, 5]: 23.4 ± 0.28 µM

COc1ccc(N2C(=O)C(=O)N([C@H](C)c3nc4ccc(F)cc4s3)C2=O)cc1 [Compound 3c, 1-(4-Methoxyphenyl)-3-[(1R)-1-(6-fluoro-1,3-benzothiazol-2-yl)ethyl]imidazolidine-2,4,5-trione]
log Kow [3]: 0.69 ± 0.02
IC50 [1, 4]: 13.2 ± 0.22 µM
IC50 [2, 5]: 22.4 ± 0.21 µM

CC(C)c1ccc(N2C(=O)C(=O)N([C@H](C)c3nc4ccc(F)cc4s3)C2=O)cc1 [Compound 3d, 1-(4-Isopropylphenyl)-3-[(1R)-1-(6-fluoro-1,3-benzothiazol-2-yl)ethyl]imidazolidine-2,4,5-trione]
IC50 [1, 4]: 1.66 ± 0.14 µM
IC50 [2, 5]: 16.6 ± 0.29 µM

C[C@H](c1nc2ccc(F)cc2s1)N1C(=O)C(=O)N(c2ccc(Cl)cc2)C1=O [Compound 3e, 1-(4-Chlorophenyl)-3-[(1R)-1-(6-fluoro-1,3-benzothiazol-2-yl)ethyl]imidazolidine-2,4,5-trione]
IC50 [1]: 25.7 ± 0.29 µM
IC50 [2]: 13.8 ± 0.13 µM

C[C@H](c1nc2ccc(F)cc2s1)N1C(=O)C(=O)N(c2ccc(C#N)cc2)C1=O [Compound 3f, 1-(4-Cyanophenyl)-3-[(1R)-1-(6-fluoro-1,3-benzothiazol-2-yl)ethyl]imidazolidine-2,4,5-trione]
log Kow [3]: 0.41 ± 0.02
log Kow ([3]; listed as 4f): lowest lipophilicity
IC50 [1, 4]: 10.5 ± 0.18 µM
IC50 [2, 5]: 19.1 ± 0.27 µM

CC(C)c1cccc(C(C)C)c1N1C(=O)C(=O)N([C@H](C)c2nc3ccc(F)cc3s2)C1=O [Compound 3g, 1-(2,6-Diisopropylphenyl)-3-[(1R)-1-(6-fluoro-1,3-benzothiazol-2-yl)ethyl]imidazolidine-2,4,5-trione]
log Kow [3]: 0.98 ± 0.08
IC50 [1, 4]: 30.2 ± 0.45 µM
IC50 [2, 5]: 15.1 ± 0.29 µM

Cc1ccc(N2C(=O)C(=O)N([C@H](C)c3nc4ccc(F)cc4s3)C2=O)cc1Cl [Compound 3h, 1-(3-Chloro-4-methylphenyl)-3-[(1R)-1-(6-fluoro-1,3-benzothiazol-2-yl)ethyl]imidazolidine-2,4,5-trione]
log Kow [3]: 0.50 ± 0.02
IC50 [1]: 17 ± 0.1 µM
IC50 [2]: 15.5 ± 0.2 µM

C[C@H](c1nc2ccc(F)cc2s1)N1C(=O)C(=O)N(c2cc(Cl)cc(Cl)c2)C1=O [Compound 3j, 1-(3,5-Dichlorophenyl)-3-[(1R)-1-(6-fluoro-1,3-benzothiazol-2-yl)ethyl]imidazolidine-2,4,5-trione]
log Kow [3]: 0.77 ± 0.03
IC50 [1]: 29.5 ± 0.39 µM
IC50 [2]: 17 ± 0.38 µM

C[C@H](c1nc2ccc(F)cc2s1)N1C(=O)C(=O)N(Cc2ccccc2)C1=O [Compound 3k, 1-Benzyl-3-[(1R)-1-(6-fluoro-1,3-benzothiazol-2-yl)ethyl]imidazolidine-2,4,5-trione]
log Kow [3]: 1.06 ± 0.09
IC50 [1, 4]: 12.6 ± 0.11 µM
IC50 [2, 5]: 18.6 ± 0.16 µM
